Assay results from patent US5019574A, “3,4-diaminoquinoline and 3,4-diamino-5,6,7,8-tetrahydroquinoline compounds useful for improving psychoneural function” (Chugai Seiyaku Kabushiki Kaisha, priority 1988, dated 1991).
Read-outs that look alike come from different tables or passages of the source.

Key:
male ICR mice = assay: Improvement of memory and learning ability tested by passive avoidance response; type: in vivo; conditions: dose 10 (μg/kg i.p.); retention trial 24 hours after acquisition trial
Method: Improvement of memory and Learning Ability Tested by Passive Avoidance Response:
Four groups of male ICR mice (10-14 weeks old). each consisting of 10 animals, were used in the experiment. Except for one control group, the mice were administered with selected compounds of the present invention. The experimental chamber consisted of a light and a dark compartment and an electric current shock source was connected to the floor grid in the dark compartment.
The experimental sessions consisted of acclimation. acquisition, and retention trials and were performed for […], one trial per day. In the acclimation trial, animals were placed in the light compartment of the experimental chamber and left there for 5 minutes to acclimate them to the apparatus. In the acquisition trial which was conducted on the 2nd day, the animals were placed in the light compartment and when they entered the dark compartment, they were confined and given an a.c. electric shock (1 mA) through the floor grid for 10 seconds. In the retention trial which was conducted 24 hours after the acquisition trial, the animals were placed in the light compartment of the chamber and the step-through latency (i.e., the time required for the animals to enter the dark compartment) was measured. A physiological saline solution was administered at the acclimation trial to all of the animals. At the acquisition trial, selected compounds were administered in amounts of 10 μg/kg of body weight (1 ml/100 g). The control group was administered the same amount of physiological saline solution 60 minutes before the start of the trial. All administrations were intraperitoneal.

MAO-A = target: T1, MAO-A (Rattus norvegicus, UniProt P21396); assay: Inhibition of monoamine oxidase: MAO-A; type: biochemical, rats (F344/Crj); conditions: 10 μM; 12 μM [14C]-serotonin substrate; None = 100; read-out: Inhibition rate (%) MAO-A
T1 construct: A crude synaptosomal fraction (P2) was obtained from the brain of rats (F344/Crj); from tissue; host or cells: rat (F344/Crj) brain, crude synaptosomal fraction (P2), homogenized
T1 sequence (P21396 1-526): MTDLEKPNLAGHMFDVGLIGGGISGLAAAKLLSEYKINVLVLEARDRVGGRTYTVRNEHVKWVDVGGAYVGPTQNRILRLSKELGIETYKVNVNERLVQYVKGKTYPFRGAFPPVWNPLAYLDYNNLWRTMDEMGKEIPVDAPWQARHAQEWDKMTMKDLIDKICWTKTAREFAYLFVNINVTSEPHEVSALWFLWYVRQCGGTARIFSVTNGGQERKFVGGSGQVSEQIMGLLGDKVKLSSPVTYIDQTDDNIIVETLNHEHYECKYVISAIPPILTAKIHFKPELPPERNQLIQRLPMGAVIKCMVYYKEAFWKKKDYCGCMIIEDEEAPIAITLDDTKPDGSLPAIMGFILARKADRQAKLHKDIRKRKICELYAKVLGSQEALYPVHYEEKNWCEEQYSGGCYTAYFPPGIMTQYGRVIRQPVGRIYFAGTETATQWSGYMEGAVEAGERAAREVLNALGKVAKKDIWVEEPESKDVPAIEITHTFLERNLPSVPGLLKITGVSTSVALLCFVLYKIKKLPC
Method: (§1) Inhibition of Monoamine Oxidase (MAO):
(§2) A crude synaptosomal fraction (P2) was obtained from the brain of rats (F344/Crj) in the usual manner and homogenized to perform MAO activity measurements. The substrate was 12 μM [^14 C]-serotonin in the case of MAO-A activity measurements, and 5 μM [^14 C]-2-phenethylamine in the case of MAO-B activity measurements. In accordance with the method of R. J. Wurtman and J. Axelrod described in Biochemical Pharmacol. 12, […], 1963, the homogenates were incubated in 100 mM phosphate buffer (pH 7.4) at 37° C. for 20 minutes and the effect of adding selected compounds at a concentration of 10 μM was evaluated.

[1] = test system: uptake of dopamine into synaptosomes; assay: Inhibition of catecholamine uptake: 3H-dopamine uptake into synaptosomes; type: biochemical, rats (F344/Crj); conditions: 1 μM; dopamine uptake in the absence of drugs taken as 100
Method: (§3) A crude synaptosomal fraction (P2) was obtained from the brain of rats (F344/Crj) in the usual manner. In accordance with the method of S. H. Snyder and J. T. Coyle described in Journal of Pharmacology and Experimental Therapeutics, 165(1), 78-86, 1969, the fraction P2 was incubated in a Krebs-Henseleit bicarbonate buffer solution at 37° C. for 10 minutes together with 50 nM ^3 H-norepinephrine (0.25 jμCi). Thereafter, the uptake of norepinephrine into the synaptosomes was measured by the filtration method. Selected compounds were added at a concentration of 1 μM to the solution being incubated and their effect on norepinephrine uptake was examined. The control drug was tetrahydroaminoacridine (THA).
(§4) Inhibition of Catecholamine Uptake:
The uptake of dopamine into synaptosomes was measured by repeating the procedure of Test Example 2 except that 50 nM ^3 H-norepinephrine (0.25 μCi) was replaced by 15 nM ^3 H-dopamine (0.68 μCi). The control drug was tetrahydroaminoacridine (THA). The result is shown in Table 5 in terms of percentage, with dopamine uptake in the absence of drugs being taken as 100.

MAO-B = target: T2, MAO-B (Rattus norvegicus, UniProt P19643); assay: Inhibition of monoamine oxidase: MAO-B; type: biochemical, rats (F344/Crj); conditions: 10 μM; 5 μM [14C]-2-phenethylamine substrate; None = 100; read-out: Inhibition rate (%) MAO-B
T2 construct: A crude synaptosomal fraction (P2) was obtained from the brain of rats (F344/Crj); from tissue; host or cells: rat (F344/Crj) brain, crude synaptosomal fraction (P2), homogenized
T2 sequence (P19643 1-520): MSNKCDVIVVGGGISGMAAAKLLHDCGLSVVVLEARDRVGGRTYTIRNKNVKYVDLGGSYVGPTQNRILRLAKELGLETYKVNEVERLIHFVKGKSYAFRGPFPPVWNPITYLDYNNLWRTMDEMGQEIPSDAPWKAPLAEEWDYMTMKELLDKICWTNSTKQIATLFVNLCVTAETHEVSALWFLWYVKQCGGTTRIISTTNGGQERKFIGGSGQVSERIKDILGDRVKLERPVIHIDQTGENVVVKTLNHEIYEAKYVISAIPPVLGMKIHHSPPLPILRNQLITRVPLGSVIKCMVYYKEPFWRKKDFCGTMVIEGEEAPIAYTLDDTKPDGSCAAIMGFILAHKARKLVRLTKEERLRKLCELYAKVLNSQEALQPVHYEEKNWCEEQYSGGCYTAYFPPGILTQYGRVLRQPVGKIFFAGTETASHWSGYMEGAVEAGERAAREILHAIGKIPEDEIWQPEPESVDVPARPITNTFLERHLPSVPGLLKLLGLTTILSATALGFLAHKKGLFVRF
Method: as §1, §2

[2] = test system: norepinephrine uptake into the synaptosomes; assay: Inhibition of catecholamine uptake: 3H-norepinephrine uptake into synaptosomes; type: biochemical, rats (F344/Crj); conditions: 1 μM; norepinephrine uptake in the absence of drug compounds taken as 100
Method: as §4, §3
The results are shown in Table 3 in terms of percentage, with norepinephrine uptake in the absence of drug compounds being taken as 100.

acetylcholinesterase = target: T3, acetylcholinesterase (Electrophorus electricus, UniProt O42275); assay: Inhibition of acetylcholinesterase activity; type: biochemical; conditions: activity without drug compound taken as 100, average of three measurements, read-out: Inhibition rate (%)
T3 construct: purchased Sigma C-2888
Method: Inhibition of Acetylcholinesterase Activity:
Acetylcholinesterase activity was assayed in accordance with the method of S. H. Sterri and F. Fonnum described in European Journal of Biochemistry, 91: 215-222, 1978. The method consisted of incubating 0.5 μU of authentic acetylcholinesterase ([…]) (Sigma, No. C-2888) at 30° C. for 15 minutes in a 20 mM sodium phosphate buffer (pH 7.4). with 1.3 mM [1^-14 C] acetylcholine (0.025 μCi) being used as a substrate. Selected compounds of the general formula (I) were added at a concentration of 1 μM to the reaction solution and the resulting effect on enzymatic activity was evaluated.
The result was obtained as the average of three measurements and shown in Table 2 in terms of percentage, with the activity for the case where no drum compound was added being taken as 100.

male rats (F344) = type: in vivo; conditions: p<0.05, n=6, AF64AP-treated rats

T3 sequence (O42275 24-633): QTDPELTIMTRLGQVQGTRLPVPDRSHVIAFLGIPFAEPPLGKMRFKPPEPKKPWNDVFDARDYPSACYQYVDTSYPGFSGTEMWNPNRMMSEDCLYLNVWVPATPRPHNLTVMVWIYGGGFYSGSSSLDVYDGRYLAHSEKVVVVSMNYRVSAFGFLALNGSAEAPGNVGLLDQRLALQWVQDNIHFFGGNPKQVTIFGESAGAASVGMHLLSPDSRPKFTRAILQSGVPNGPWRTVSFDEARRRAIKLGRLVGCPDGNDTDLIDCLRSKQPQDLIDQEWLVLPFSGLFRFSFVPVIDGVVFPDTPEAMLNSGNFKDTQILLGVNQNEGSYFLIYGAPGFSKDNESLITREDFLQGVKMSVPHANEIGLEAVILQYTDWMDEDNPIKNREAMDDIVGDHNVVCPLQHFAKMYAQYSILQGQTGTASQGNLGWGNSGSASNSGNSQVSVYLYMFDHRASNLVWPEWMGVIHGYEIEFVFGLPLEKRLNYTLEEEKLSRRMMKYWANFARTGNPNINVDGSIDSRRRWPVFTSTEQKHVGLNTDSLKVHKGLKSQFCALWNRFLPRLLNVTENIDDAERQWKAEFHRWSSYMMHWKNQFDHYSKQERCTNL

SMILES | Step through latency (male ICR mice) [s] | inhibition at 10 µM (MAO-A) [%] | Inhibition rate (%) [1] [%] | inhibition at 10 µM (MAO-B) [%] | Inhibition rate (%) [2] [%] | inhibition at 1 µM (acetylcholinesterase) [%] | number of correct responses vs vehicle control (male rats (F344); 10 mg/kg orally) | number of correct responses vs vehicle control (male rats (F344); 30 mg/kg orally)
Nc1c2c(nc(C3CCCCC3O)c1N1CCCCC1)CCCC2 (centres unmarked) [Compound 9] | 54.4 ± 7.2 | 59.4 | 78.6 | 89.4 | 69.4 | 38.8 |  | 
Nc1c(N2CCCCC2)c(C2CCCCC2=O)nc2ccccc12 (centres unmarked) [Compound 7, 4-amino-3-piperidino-2-(2'-oxocyclohexyl)quinoline] | 104.1 ± 28.5 | 58.7 | 86.4 | 87.5 | 79.0 | 38.1 | statistically significant increase in the number of correct responses | statistically significant increase in the number of correct responses
